Laboratory results from patent US9370520B2, “Macrocyclic LRRK2 kinase inhibitors” (IPSEN PHARMA S.A.S., priority 2011, dated 2016).
Like-named read-outs stand apart in the source and are kept apart here.

Tests used:
[1] = not given; remark: listed apart in the source
truncated LRRK2 = molecular target: T1, truncated LRRK2 (Homo sapiens, UniProt Q5S007); test: radiometric protein kinase assay (33PanQinase Activity Assay, Protocol 2), truncated LRRK2; assay type: biochemical
T1 construct: a truncated LRRK2 enzyme (GST tagged LRRK2 of amino acids 970-2527); GST; purchased Invitrogen Corporation
T1 sequence (Q5S007 970-2527): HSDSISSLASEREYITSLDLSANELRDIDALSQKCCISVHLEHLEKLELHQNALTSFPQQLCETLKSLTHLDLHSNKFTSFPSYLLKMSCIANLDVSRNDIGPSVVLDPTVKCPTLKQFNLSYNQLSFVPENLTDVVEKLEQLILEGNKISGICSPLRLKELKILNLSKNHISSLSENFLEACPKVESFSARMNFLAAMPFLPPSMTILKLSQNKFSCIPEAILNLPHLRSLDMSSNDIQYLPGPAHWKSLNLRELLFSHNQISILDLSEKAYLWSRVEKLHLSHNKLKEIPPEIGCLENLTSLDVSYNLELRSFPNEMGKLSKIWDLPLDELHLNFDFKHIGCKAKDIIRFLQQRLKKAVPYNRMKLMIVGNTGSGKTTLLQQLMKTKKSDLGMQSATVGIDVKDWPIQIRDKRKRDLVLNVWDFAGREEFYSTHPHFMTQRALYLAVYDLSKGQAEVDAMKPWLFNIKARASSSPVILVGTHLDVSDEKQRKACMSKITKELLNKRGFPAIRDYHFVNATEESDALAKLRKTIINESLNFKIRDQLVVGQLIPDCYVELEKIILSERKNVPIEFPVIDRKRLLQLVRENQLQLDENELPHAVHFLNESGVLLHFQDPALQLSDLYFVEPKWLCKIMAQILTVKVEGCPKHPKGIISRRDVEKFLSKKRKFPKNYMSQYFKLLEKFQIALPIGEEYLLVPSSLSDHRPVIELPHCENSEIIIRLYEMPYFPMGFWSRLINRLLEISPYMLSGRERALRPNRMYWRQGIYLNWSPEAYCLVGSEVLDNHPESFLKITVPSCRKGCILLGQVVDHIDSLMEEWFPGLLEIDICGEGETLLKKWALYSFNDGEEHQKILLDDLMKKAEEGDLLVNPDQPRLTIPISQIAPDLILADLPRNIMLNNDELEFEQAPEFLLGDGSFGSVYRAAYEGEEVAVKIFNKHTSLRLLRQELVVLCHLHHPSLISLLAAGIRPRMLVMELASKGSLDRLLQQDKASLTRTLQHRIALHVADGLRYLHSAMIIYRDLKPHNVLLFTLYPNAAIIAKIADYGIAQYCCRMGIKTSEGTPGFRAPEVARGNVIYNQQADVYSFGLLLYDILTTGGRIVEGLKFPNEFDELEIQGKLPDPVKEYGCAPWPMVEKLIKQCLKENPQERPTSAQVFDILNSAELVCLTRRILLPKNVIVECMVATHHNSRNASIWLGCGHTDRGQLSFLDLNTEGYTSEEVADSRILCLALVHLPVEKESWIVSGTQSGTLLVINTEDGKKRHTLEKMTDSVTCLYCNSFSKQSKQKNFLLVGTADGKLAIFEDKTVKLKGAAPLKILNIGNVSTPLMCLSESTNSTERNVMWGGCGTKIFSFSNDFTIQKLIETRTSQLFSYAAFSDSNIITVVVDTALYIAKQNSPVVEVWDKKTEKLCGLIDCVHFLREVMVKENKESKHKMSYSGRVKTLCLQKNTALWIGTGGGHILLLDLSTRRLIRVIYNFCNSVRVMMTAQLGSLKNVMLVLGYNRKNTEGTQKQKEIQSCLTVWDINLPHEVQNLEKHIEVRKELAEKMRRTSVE
Procedure: (§1) The inhibition of LRRK2 and LRRK1 kinase was assessed using LRRK2 and LRRK1 recombinant protein in an in vitro peptide-based kinase assay.
A radiometric protein kinase assay (^33PanQinase® Activity Assay) is used for measuring the kinase activity. All assays are performed in 96-well FlashPlates™ from Perkin Elmer in a 50 μl reaction volume. The reaction cocktail is pipetted in 4 steps in the following order: • 10 μl of non-radioactive ATP solution (in H2O) • 25 μl of assay buffer/[γ-^33P]-ATP mixture • 5 μl of test sample in 10% DMSO • 10 μl of enzyme/substrate mixture
The kinase is obtained from Invitrogen Corporation.
The reaction cocktails were incubated at 30° C. for 60 minutes. The reaction was stopped with 50 μl of 2% (v/v) H3PO4, plates were aspirated and washed two times with 200 μl 0.9% (w/v) NaCl. Incorporation of ^33Pi (counting of “cpm”) was determined with a microplate scintillation counter.

[2] = molecular target: T2, truncated LRRK2 (GST tagged LRRK2 of amino acids 970-2527) (Homo sapiens, UniProt Q5S007); test: LRRKtide 32P-ATP peptide kinase assay (Protocol 1), truncated LRRK2; assay type: biochemical; conditions: 10 μM ATP, 200 μM lrrktide
T2 construct: GST tagged LRRK2 of amino acids 970-2527; GST
T2 sequence (Q5S007 970-2527): as above
Procedure: as §1
(§2) LRRK2 protein is prepared as described in Daniëls et al. ((2011) J Neurochem 116, 304-315.). HEK293T cells are transfected with pCHMWS-3xflag-LRRK2 plasmid using polyethyleneimine and lysed after 48-72 hours in lysis buffer (Tris 20 mM pH 7.5, NaCl 150 mM, EDTA 1 mM, Triton 1%, Glycerol 10%, protease inhibitor cocktail). Lysates are cleared by centrifugation at 20,000 g for 10 minutes and incubated with normal mouse IgGs bound to agarose beads to remove proteins aspecifically binding to agarose or mouse IgGs. After removal of the IgG bead slurry, lysates are incubated for 3 to 18 hours with flagM2 bound to agarose beads. Beads are washed 4 times with wash buffer (Tris 25 mM pH 7.5, NaCl 400 mM, Triton 1%) and rinsed in kinase buffer (Tris-HCl 25 mM pH 7.5, 10 mM MgCl2, 2 mM dithiothreitol (DTT), 0.02% triton, 5 mM beta-glycerophosphate, 0.1 mM Na3VO4). Proteins are eluted in 5 volumes of kinase buffer containing 100 μg/ml 3xflag peptide. For assays using purified protein bound to affinity resin, affinity beads are resuspended in an equal volume of kinase buffer unless otherwise indicated. Purity and concentration are assessed by SDS-PAGE (3-8% tris-acetate SDS gel) and Coomassie Brilliant Blue staining or silver staining. Alternatively, a truncated LRRK2 enzyme (GST tagged LRRK2 of amino acids 970-2527) and a truncated LRRK2-G2019S (GST tagged LRRK2-G2019S of amino acids 970-2527) are used.
(§3) For Irrktide phosphorylation, recombinant LRRK2 is incubated with 6 μCi of 32P-ATP (3000 Ci/mmol), 200 μM Irrktide, 10 μM ATP and compound or solvent per 40 μl reaction for 30 minutes at 30° C. Compounds are tested at concentrations ranging from […]; the final amount of DMSO in the kinase reaction is 1%. Reactions are stopped and spotted to P81 phosphocellulose paper and washed 4×10 minutes in 75 mM phosphoric acid. Lrrktide phosphorylation levels are measured via autoradiography. Kinase assays are performed for each condition in triplicate.
(§4) LRRKtide phosphorylation levels are plotted vs. the log of the compound concentration and inhibition curves are fitted from which IC50 values are derived.

[3] = molecular target: T3, truncated LRRK2-G2019S (GST tagged LRRK2-G2019S of amino acids 970-2527) (Homo sapiens, UniProt Q5S007, G2019S); test: LRRKtide 32P-ATP peptide kinase assay (Protocol 1), truncated LRRK2-G2019S; assay type: biochemical; conditions: 10 μM ATP, 200 μM lrrktide
T3 construct: GST tagged LRRK2-G2019S of amino acids 970-2527; GST
T3 sequence (Q5S007 970-2527 G2019S): as the sequence (Q5S007 970-2527) above, with G1050S counted along it
Procedure: as §1, §2, §3, §4

full-length LRRK2 = molecular target: T4, full-length LRRK2 (Homo sapiens, UniProt Q5S007); test: LRRKtide 32P-ATP peptide kinase assay (Protocol 1), full-length LRRK2; assay type: biochemical; conditions: 10 μM ATP, 200 μM lrrktide
T4 construct: full-length; made in house; host or cells: HEK293T
T4 sequence (Q5S007 whole entry): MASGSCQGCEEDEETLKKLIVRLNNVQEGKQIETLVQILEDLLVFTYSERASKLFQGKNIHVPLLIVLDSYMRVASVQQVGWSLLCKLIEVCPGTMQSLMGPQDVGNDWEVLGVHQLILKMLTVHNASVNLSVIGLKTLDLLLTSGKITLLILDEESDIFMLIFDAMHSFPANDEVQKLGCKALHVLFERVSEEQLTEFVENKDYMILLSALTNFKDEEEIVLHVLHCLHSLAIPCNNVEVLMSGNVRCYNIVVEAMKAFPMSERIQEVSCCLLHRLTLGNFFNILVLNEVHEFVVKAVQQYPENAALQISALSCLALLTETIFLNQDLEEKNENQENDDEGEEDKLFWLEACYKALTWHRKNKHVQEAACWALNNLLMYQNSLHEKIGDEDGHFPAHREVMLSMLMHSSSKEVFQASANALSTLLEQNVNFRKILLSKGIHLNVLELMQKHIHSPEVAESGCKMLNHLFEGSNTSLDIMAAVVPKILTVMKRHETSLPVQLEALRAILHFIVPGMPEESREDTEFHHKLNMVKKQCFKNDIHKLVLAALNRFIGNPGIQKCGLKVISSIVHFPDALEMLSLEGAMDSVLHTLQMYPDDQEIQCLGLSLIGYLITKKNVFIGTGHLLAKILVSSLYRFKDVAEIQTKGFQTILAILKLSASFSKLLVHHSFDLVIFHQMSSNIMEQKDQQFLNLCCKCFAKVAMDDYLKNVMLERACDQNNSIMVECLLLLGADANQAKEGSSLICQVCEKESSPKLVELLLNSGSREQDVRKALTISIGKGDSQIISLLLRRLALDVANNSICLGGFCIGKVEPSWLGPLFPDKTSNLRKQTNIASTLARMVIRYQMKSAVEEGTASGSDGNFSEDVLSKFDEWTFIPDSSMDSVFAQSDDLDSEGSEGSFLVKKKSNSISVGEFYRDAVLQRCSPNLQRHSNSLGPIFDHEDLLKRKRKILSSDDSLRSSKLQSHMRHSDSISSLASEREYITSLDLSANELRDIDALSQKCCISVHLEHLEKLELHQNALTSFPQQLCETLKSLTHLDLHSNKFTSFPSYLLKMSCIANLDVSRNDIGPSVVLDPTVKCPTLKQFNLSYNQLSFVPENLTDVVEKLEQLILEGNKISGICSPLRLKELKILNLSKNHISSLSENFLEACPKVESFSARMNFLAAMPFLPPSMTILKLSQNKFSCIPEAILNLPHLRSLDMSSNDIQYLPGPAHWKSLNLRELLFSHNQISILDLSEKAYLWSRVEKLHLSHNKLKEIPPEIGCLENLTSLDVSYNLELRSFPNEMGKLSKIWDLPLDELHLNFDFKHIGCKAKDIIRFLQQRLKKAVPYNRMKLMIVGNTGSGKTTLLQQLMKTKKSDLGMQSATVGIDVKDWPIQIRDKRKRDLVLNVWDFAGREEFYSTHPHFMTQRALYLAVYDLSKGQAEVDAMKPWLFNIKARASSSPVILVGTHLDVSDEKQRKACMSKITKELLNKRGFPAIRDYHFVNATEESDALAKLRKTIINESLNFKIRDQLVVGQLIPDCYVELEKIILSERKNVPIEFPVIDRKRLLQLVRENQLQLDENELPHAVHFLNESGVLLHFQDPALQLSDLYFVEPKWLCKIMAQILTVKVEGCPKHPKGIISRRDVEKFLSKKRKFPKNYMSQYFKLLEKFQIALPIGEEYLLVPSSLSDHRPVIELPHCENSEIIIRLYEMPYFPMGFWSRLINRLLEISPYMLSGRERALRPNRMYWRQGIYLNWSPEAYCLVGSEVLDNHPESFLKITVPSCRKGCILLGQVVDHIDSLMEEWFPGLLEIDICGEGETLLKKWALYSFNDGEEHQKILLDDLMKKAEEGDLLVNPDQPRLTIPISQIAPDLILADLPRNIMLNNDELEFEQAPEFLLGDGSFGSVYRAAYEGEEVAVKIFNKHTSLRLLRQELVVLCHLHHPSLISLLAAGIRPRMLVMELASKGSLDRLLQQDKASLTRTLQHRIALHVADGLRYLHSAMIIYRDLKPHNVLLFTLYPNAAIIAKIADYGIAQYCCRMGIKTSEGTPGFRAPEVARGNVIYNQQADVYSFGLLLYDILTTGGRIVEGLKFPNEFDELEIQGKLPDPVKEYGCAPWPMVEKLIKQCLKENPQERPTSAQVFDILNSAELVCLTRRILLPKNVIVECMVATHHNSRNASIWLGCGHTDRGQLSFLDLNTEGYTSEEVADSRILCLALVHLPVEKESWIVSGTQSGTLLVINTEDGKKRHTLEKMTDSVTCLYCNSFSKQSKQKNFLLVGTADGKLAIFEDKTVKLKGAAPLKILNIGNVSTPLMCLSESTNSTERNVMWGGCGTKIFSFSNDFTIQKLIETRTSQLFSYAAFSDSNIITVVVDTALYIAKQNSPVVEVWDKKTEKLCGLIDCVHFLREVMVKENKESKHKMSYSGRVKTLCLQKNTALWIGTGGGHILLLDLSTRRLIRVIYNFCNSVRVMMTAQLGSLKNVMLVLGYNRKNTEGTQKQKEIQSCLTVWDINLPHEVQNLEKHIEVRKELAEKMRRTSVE
Procedure: as §1, §2
as §3, with “triplicate. […]” for “triplicate.”

[4] = Protocol 2, ATP 0.3 μM, substrate GSK3(14-27), read-out: IC50 for truncated LRRK2

Row | Compound | IC50 (truncated LRRK2; [4]) | other results
1 | O=C1CNc2ccn3ncc(c3n2)-c2cccc(c2)OCCCCN1 |  | ring closure, yield of all isomers (from NCCCCOc1cccc(-c2cnn3ccc(NCC(=O)O)nc23)c1, amide bond, HBTU/DIPEA, DMF, 10.0 mM, 25.0 °C, 2.0 h): 19%; melting point [1]: > 300 °C
2 | COC(=O)c1cc2cc(c1)-c1cnn3ccc(nc13)N(C(=O)OC(C)(C)C)CCN(C(=O)OC(C)(C)C)CCO2 |  | ring closure, yield of all isomers (from COC(=O)c1cc(O)cc(-c2cnn3ccc(N(CCN(CCO)C(=O)OC(C)(C)C)C(=O)OC(C)(C)C)nc23)c1, ether bond, DIAD/PPh3, toluene, 8.7 mM, 90.0 °C, 3.5 h): 89%
3 | O=C1CCNc2ccn3ncc(c3n2)-c2cc(F)cc(c2)OCCN1 |  | ring closure, yield of all isomers (from NCCOc1cc(F)cc(-c2cnn3ccc(NCCC(=O)O)nc23)c1, amide bond, HBTU/DIPEA, DMF, 28.6 mM, 25.0 °C, 1.0 h): 18%
4 | COCCC(=O)N1CCNCc2cccc(c2)-c2cnn3ccc(nc23)NCC1 [Compound 54] | 100 to 1000 nM | 
5 | CCCC(=O)N1CCNCc2cccc(c2)-c2cnn3ccc(nc23)NCC1 [Compound 55] | > 1000 nM | 
6 | O=C1CNc2ccn3ncc(c3n2)-c2cccc(c2)OCCCN1 [Compound 57] | > 1000 nM | 
7 | CN(C)CCN1CCN(C)c2ccn3ncc(c3n2)-c2cccc(c2)OCC1=O [Compound 58] | > 1000 nM | 
8 | CN1CCC(=O)NCCNc2ccn3ncc(c3n2)-c2cccc(c2)C1 [Compound 60] | < 100 nM | 
9 | C[C@H]1NCc2cccc(c2)-c2cnn3ccc(nc23)NCCNC1=O [Compound 62] | > 1000 nM | 
10 | CN1CCCOc2cccc(c2)-c2cnn3ccc(nc23)NCCCC1=O [Compound 65] | > 1000 nM | 
11 | COc1ccc2cc1OCCN(C(=O)C1CC1)CCNc1ccn3ncc-2c3n1 [Compound 66] | 100 to 1000 nM | 
12 | C=CC(=O)N1CCNc2ccn3ncc(c3n2)-c2cccc(c2)OCC1 [Compound 70] | < 100 nM | melting point [1]: > 300 °C
13 | CCC(=O)N1CCNc2ccn3ncc(c3n2)-c2cccc(c2)N(C)CC1 [Compound 71] |  | melting point [1]: > 300 °C
14 | O=C1CNc2ccn3ncc(c3n2)-c2cccc(c2)OCCOCCN1 [Compound 72] |  | ring closure, yield of all isomers (from NCCOCCOc1cccc(-c2cnn3ccc(NCC(=O)O)nc23)c1, amide bond, HBTU/DIPEA, DMF, 10.0 mM, 25.0 °C, 2.0 h): 30%; melting point [1]: 272.5 °C
15 | O=C(C1CC1)N1CCNc2ccn3ncc(c3n2)-c2cccc(c2)OCC1 [Example 1] |  | IC50 [2]: < 100 nM; IC50 [3]: < 100 nM; melting point [1]: > 300 °C
16 | O=C1CCCOc2cccc(c2)-c2cnn3ccc(nc23)NCCN1 [Example 2] |  | IC50 (full-length LRRK2): < 100 nM; IC50 [2]: 100 to 1000 nM; IC50 [3]: 100 to 1000 nM; melting point [1]: > 300 °C
17 | O=C(CCO)N1CCNc2ccn3ncc(c3n2)-c2cccc(c2)OCC1 [Example 4] |  | IC50 [2]: < 100 nM; IC50 [3]: < 100 nM; melting point [1]: > 300 °C
18 | O=S1(=O)CCCOc2cccc(c2)-c2cnn3ccc(nc23)NCCN1 [Example 8] |  | melting point [1]: 269 °C
19 | COCCC(=O)N1CCCN(C)c2cccc(c2)-c2cnn3ccc(nc23)NCC1 [Example 19] | 100 to 1000 nM | 
20 | NC(=O)N1CCNc2ccn3ncc(c3n2)-c2cccc(c2)OCC1 [Example 38] | < 100 nM | 
21 | O=C(CCN1CCCC1)N1CCNc2ccn3ncc(c3n2)-c2cccc(c2)OCC1 [Example 40] | < 100 nM | 
22 | CN(C)CCC(=O)N1CCNc2ccn3ncc(c3n2)-c2cccc(c2)OCC1 [Example 41] | < 100 nM | 
23 | O=C1NCCN(C(=O)C2CC2)CCNc2ccn3ncc(c3n2)-c2cccc1c2 [Example 45] | 100 to 1000 nM | 
24 | CN(C)CCN1CCNc2ccn3ncc(c3n2)-c2cccc(c2)OCC1=O [Example 46] | > 1000 nM | 
25 | CN1CCNc2ccn3ncc(c3n2)-c2cccc(c2)OCCCS1(=O)=O [Example 47] | 100 to 1000 nM | 
26 | O=C(CF)N1CCNc2ccn3ncc(c3n2)-c2cccc(c2)OCC1 [Example 50] |  | IC50 (truncated LRRK2): < 100 nM
27 | CC(=O)N1CCNCc2cccc(c2)-c2cnn3ccc(nc23)NCC1 [Example 52] | 100 to 1000 nM | 

Second part, led by results:

Row | IC50 (truncated LRRK2; [4]) | Compound | other results
28 | > 1000 nM | CC(C)C(=O)N1CCNCc2cccc(c2)-c2cnn3ccc(nc23)NCC1 [Compound 53] | 
29 | > 1000 nM | CN(C)CCC(=O)N1CCNCc2cccc(c2)-c2cnn3ccc(nc23)NCC1 [Compound 56] | 
30 | > 1000 nM | O=C1CCNCc2cccc(c2)-c2cnn3ccc(nc23)NCCN1 [Compound 59] | 
31 | > 1000 nM | CN1CC(=O)NCCNc2ccn3ncc(c3n2)-c2cccc1c2 [Compound 61] | 
32 | 100 to 1000 nM | O=C(C1CC1)N1CCOc2cccc(c2)-c2cnn3ccc(nc23)N(CCO)CC1 [Compound 63] | 
33 | > 1000 nM | C[C@@H]1NCc2cccc(c2)-c2cnn3ccc(nc23)NCCNC1=O [Compound 64] | 
34 | > 1000 nM | O=C1CN(C(=O)C2CC2)CCNc2ccn3ncc(c3n2)-c2cccc(c2)N1 [Compound 67] | 
35 | > 1000 nM | O=C1CCC(=O)Nc2cccc(c2)-c2cnn3ccc(nc23)OCCCN1 [Compound 68] | melting point [1]: 295.1 °C
36 | > 1000 nM | NC(=O)c1cc2cc(c1)-c1cnn3ccc(nc13)NCCN(C(=O)C1CC1)CCO2 [Compound 69] | melting point [1]: > 300 °C
37 | < 100 nM | O=C(CCF)N1CCNc2ccn3ncc(c3n2)-c2cccc(c2)OCC1 [Example 10] | 
38 | < 100 nM | CN(C)C(=O)N1CCNc2ccn3ncc(c3n2)-c2cccc(c2)OCC1 [Example 11] | 
39 | 100 to 1000 nM | CCOC(=O)N1CCCNc2ccn3ncc(c3n2)-c2cccc(c2)OCC1 [Example 12] | 
40 | < 100 nM | NC(=O)CN1CCNc2ccn3ncc(c3n2)-c2cccc(c2)OCC1 [Example 13] | 
41 | 100 to 1000 nM | CS(=O)(=O)N1CCNc2ccn3ncc(c3n2)-c2cccc(c2)OCC1 [Example 14] | 
42 | < 100 nM | CCC(=O)N1CCNc2cccc(c2)-c2cnn3ccc(nc23)NCC1 [Example 17] | 
43 | 100 to 1000 nM | O=C(N1CCNc2ccn3ncc(c3n2)-c2cccc(c2)OCC1)N1CCN(CCF)CC1 [Example 29] | 
44 | 100 to 1000 nM | COCCC(=O)N1CCNc2ccn3ncc(c3n2)-c2cccc(c2)OCC1 [Example 31] | 
45 | < 100 nM | O=C(c1ccc[nH]1)N1CCNc2ccn3ncc(c3n2)-c2cccc(c2)OCC1 [Example 32] | 
46 | < 100 nM | O=C(c1cocn1)N1CCNc2ccn3ncc(c3n2)-c2cccc(c2)OCC1 [Example 33] | 
47 | 100 to 1000 nM | O=S(=O)(C1CC1)N1CCNc2ccn3ncc(c3n2)-c2cccc(c2)OCC1 [Example 34] | 
48 | < 100 nM | O=C(C1CC1)N1CCNc2cccc(c2)-c2cnn3ccc(nc23)NCC1 [Example 35] | 
49 | 100 to 1000 nM | O=C(CN1CCOCC1)N1CCNc2ccn3ncc(c3n2)-c2cccc(c2)OCC1 [Example 36] | 
50 | < 100 nM | CNCC(=O)N1CCNc2ccn3ncc(c3n2)-c2cccc(c2)OCC1 [Example 37] | 
51 | 100 to 1000 nM | CN1CCN(CC(=O)N2CCNc3ccn4ncc(c4n3)-c3cccc(c3)OCC2)CC1 [Example 39] | 
52 | < 100 nM | N#Cc1ccc2cc1OCCN(C(=O)C1CC1)CCNc1ccn3ncc-2c3n1 [Example 42] | 
53 | 100 to 1000 nM | O=C1CCCNc2ccn3ncc(c3n2)-c2cccc(c2)OCCCN1 [Example 43] | 
54 | > 1000 nM | CC(C)N1CCNc2ccn3ncc(c3n2)-c2cccc(c2)OCC1=O [Example 44] | 
55 | 100 to 1000 nM | CN(C)CCN1CCN(C(=O)C2CC2)CCOc2cccc(c2)-c2cnn3ccc1nc23 [Example 48] | 
56 | 100 to 1000 nM | O=C1CNc2cccc(c2)-c2cnn3ccc(nc23)NCCN1 [Example 49] | 
57 | 100 to 1000 nM | O=C(C1CC1)N1CCNCc2cccc(c2)-c2cnn3ccc(nc23)NCC1 [Example 51] | 
